Measured values from US20060069132A1, “Azolecarboxamide herbicides” (priority 2004, published 2006).

Columns and labels:
giant foxtail [1] = test: Test A pre-/postemergence herbicide test; type: in vivo, Setaria faberi; conditions: for pest or weed control at 125 g/ha / pest or weed control at 500 g/ha: Setaria faberi, 240 h, read-out: Foxtail, Giant plant response rating; for pest or weed control at 125 g/ha: 125 g ai/ha
Outline: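 Both application timings were run together: directed soil spray over freshly planted seeds in sandy loam, and runoff spray onto 2–10 cm seedlings. Evaluation after ~10 days in greenhouse used a 0–100 visual scale versus untreated controls.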

giant foxtail [2] = test: Test B pre-/postemergence herbicide test; type: in vivo, Setaria faberi
Outline: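 Formulation: non-phytotoxic solvent mix with surfactant. Timing: preemergence on seed and postemergence on 2–18 cm plants, applied concurrently. Readout after 13–15 d greenhouse: visual 0–100 control rating against controls.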

ducksalad = test: Test C flooded paddy test; type: in vivo, Heteranthera limosa
barnyardgrass = test: Test C flooded paddy test; type: in vivo, Echinochloa crus-galli
Outline: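 Weeds and wheat were sprayed after emergence, at a height of 2 to 18 cm (1–4 leaves), and paddy barnyardgrass was flooded and treated at two leaves. Assessment took place 12–14 days later in the greenhouse on a 0-to-100 visual control scale. A dash means no result was obtained.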

[3] = Postemergence, 500 g ai/ha, 0 to 100 scale, 0 no effect, 100 complete control
[4] = Postemergence, 2000 g ai/ha, 0 to 100 scale, 0 no effect, 100 complete control
[5] = Preemergence, 2000 g ai/ha, visual rating, 0 to 100 scale (0 no effect, 100 complete control)
[6] = preemergence, 500 g ai/ha, visual injury, 0 to 100 scale (0 no effect, 100 complete control)
[7] = 125 g ai/ha, 0 = no effect, 100 = complete control, preemergence
[8] = 125 g ai/ha, visual rating, scale 0 (no effect) to 100 (complete control), postemergence
[9] = 500 g ai/ha, visual rating, 0 = no effect, 100 = complete control, preemergence
[10] = postemergence, 500 g ai/ha, scale 0 to 100, 0 is no effect, 100 is complete control
[11] = 125 g ai/ha, scale 0 to 100 (0 no effect, 100 complete control)
[12] = 62 g ai/ha, scale 0 to 100 (0 no effect, 100 complete control)
[13] = postemergence, 125 g ai/ha, visual rating, scale 0 (no effect) to 100 (complete control)
[14] = 250 g ai/ha, scale of 0 to 100, 0 is no effect, 100 is complete control
[15] = 500 g ai/ha, visual rating after 12 to 14 days, scale 0 to 100 (0 no effect, 100 complete control)
[16] = Setaria faberi, post-emergence, 336 h, postemergence, 125 g ai/ha, visual rating, scale 0 (no effect) to 100 (complete control), read-out: Foxtail, Giant plant response rating
[17] = Setaria faberi, pre-emergence, 336 h, 125 g ai/ha, 0 = no effect, 100 = complete control, read-out: Foxtail, Giant plant response rating (0 to 100 scale)

Row | SMILES | Foxtail, Giant plant response rating (giant foxtail [1]; [3]) | Plant response rating, Foxtail, Giant (giant foxtail [1]; [4]) | Foxtail, Giant plant response rating (giant foxtail [1]; [5]) | Plant response rating, Foxtail, Giant (giant foxtail [2]; [9]) | Foxtail, Giant plant response rating (giant foxtail [2]; [10]) | Ducksalad plant response rating (ducksalad; 62 g ai/ha, scale 0 to 100) | Ducksalad plant response rating (ducksalad; [11]) | Barnyardgrass plant response rating (barnyardgrass; [12]) | Barnyardgrass plant response rating (barnyardgrass; [11]) | Ducksalad plant response rating (ducksalad; [14]) | Plant response rating, Ducksalad (ducksalad; [15]) | Barnyardgrass plant response rating (barnyardgrass; [14]) | Plant response rating, Barnyardgrass (barnyardgrass; [15]) | other results
1 | CCOC(=O)c1cccc(NC(=O)c2cc(C(C)(C)C)nn2C)n1 [Compound 313] | 70 | 80 | 90 | 100 | 50 | 0 | 30 | 0 | 0 |  |  |  |  | Foxtail, Giant plant response rating (giant foxtail [1]; [6]): 75; Foxtail, Giant plant response rating (0 to 100 scale) (giant foxtail [2]; [7]): 40; Foxtail, Giant plant response rating (giant foxtail [2]; [8]): 20; Ducksalad plant response rating (ducksalad; 16 g ai/ha, scale 0 to 100): 0; Ducksalad plant response rating (ducksalad; 31 g ai/ha, scale 0 to 100): 0; Barnyardgrass plant response rating (barnyardgrass; 16 g ai/ha, scale 0 to 100): 0; Barnyardgrass plant response rating (barnyardgrass; 31 g ai/ha, scale 0 to 100): 0
2 | C=CCN(C)C(=O)c1cccc(NC(=O)c2cc(C(C)(C)C)nn2CC)c1 [Compound 285] | 25 | 55 | 90 | 80 | 50 | 45 | 80 | 10 | 25 | 90 | 90 | 55 | 75 | Foxtail, Giant plant response rating (giant foxtail [1]; [6]): 60; Foxtail, Giant plant response rating (0 to 100 scale) (giant foxtail [2]; [7]): 10; Foxtail, Giant plant response rating (giant foxtail [2]; [13]): 30
3 | CCn1nc(C(C)(C)C)c(F)c1C(=O)Nc1cc(C(=O)N(C)C)ccc1F [Compound 276, N-[5-[(dimethylamino)carbonyl]-2-fluorophenyl]-3-(1,1-dimethylethyl)-1-ethyl-4-fluoro-1H-pyrazole-5-carboxamide] |  |  |  |  |  |  |  |  |  |  |  |  |  | pest or weed control at 125 g/ha (giant foxtail [2]; [16]): 10%; pest or weed control at 500 g/ha (giant foxtail [2]; Setaria faberi, post-emergence, 336 h, postemergence, 500 g ai/ha, scale 0 to 100, 0 is no effect, 100 is complete control, read-out: Foxtail, Giant plant response rating): 40%; pest or weed control at 125 g/ha (giant foxtail [2]; [17]): 30%; pest or weed control at 500 g/ha (giant foxtail [2]; Setaria faberi, pre-emergence, 336 h, 500 g ai/ha, visual rating, 0 = no effect, 100 = complete control, read-out: Plant response rating, Foxtail, Giant): 90%; pest or weed control at 62 g/ha (ducksalad; Heteranthera limosa, 62 g ai/ha, scale 0 to 100, read-out: Ducksalad plant response rating): 0%; pest or weed control at 125 g/ha (ducksalad; Heteranthera limosa, 125 g ai/ha, scale 0 to 100 (0 no effect, 100 complete control), read-out: Ducksalad plant response rating): 20%; pest or weed control at 250 g/ha (ducksalad; Heteranthera limosa, 250 g ai/ha, scale of 0 to 100, 0 is no effect, 100 is complete control, read-out: Ducksalad plant response rating): 70%; pest or weed control at 500 g/ha (ducksalad; Heteranthera limosa, 500 g ai/ha, visual rating after 12 to 14 days, scale 0 to 100 (0 no effect, 100 complete control), read-out: Plant response rating, Ducksalad): 85%; pest or weed control at 62 g/ha (barnyardgrass; Echinochloa crus-galli, 62 g ai/ha, scale 0 to 100 (0 no effect, 100 complete control), read-out: Barnyardgrass plant response rating): 0%; pest or weed control at 125 g/ha (barnyardgrass; Echinochloa crus-galli, 125 g ai/ha, scale 0 to 100 (0 no effect, 100 complete control), read-out: Barnyardgrass plant response rating): 15%; pest or weed control at 250 g/ha (barnyardgrass; Echinochloa crus-galli, 250 g ai/ha, scale of 0 to 100, 0 is no effect, 100 is complete control, read-out: Barnyardgrass plant response rating): 50%; pest or weed control at 500 g/ha (barnyardgrass; Echinochloa crus-galli, 500 g ai/ha, visual rating after 12 to 14 days, scale 0 to 100 (0 no effect, 100 complete control), read-out: Plant response rating, Barnyardgrass): 70%
4 | CCNC(=O)c1ccc(F)c(NC(=O)c2c3c(nn2CC)C(C)(C)CC3)c1 [Compound 353] |  |  |  | 50 | 30 | 0 | 0 | 0 | 0 | 30 | 30 | 20 | 20 | Plant response rating (0 to 100 scale), Foxtail, Giant (giant foxtail [2]; 125 g ai/ha, 0 is no effect, 100 is complete control, preemergence): 0; Foxtail, Giant plant response rating (giant foxtail [2]; [8]): 20
5 | C=Cn1nc(C(C)(C)C)cc1C(=O)Nc1cccc(C(C)=O)c1 [Compound 127] | 30 | 30 | 35 |  |  |  | 15 | 20 |  | 20 | 80 | 30 | 55 | Foxtail, Giant plant response rating (giant foxtail [1]; Preemergence, 500 g ai/ha, visual rating, 0 to 100 scale (0 no effect, 100 complete control)): 20; Plant response rating, Foxtail, Giant (giant foxtail [2]; 500 g ai/ha, visual rating 0-100, 0 no effect, 100 complete control, preemergence): 70; Foxtail, Giant plant response rating (giant foxtail [2]; [13]): 20; Foxtail, Giant plant response rating (giant foxtail [2]; postemergence, 500 g ai/ha, visual rating, scale 0 (no effect) to 100 (complete control)): 30; Plant response rating, Foxtail, Giant (giant foxtail [2]; preemergence, 125 g ai/ha, 0 to 100 scale, 0 is no effect, 100 is complete control): 30; Ducksalad plant response rating (ducksalad; [12]): 0; Barnyardgrass plant response rating (barnyardgrass; 125 g ai/ha, scale of 0 to 100, 0 is no effect, 100 is complete control): 30
6 | CCNC(=O)c1cccc(NC(=O)c2nc(C(C)(C)C)nn2CC)c1 [Compound 446, 3-(1,1-dimethylethyl)-1-ethyl-N-[3-[(ethylamino)carbonyl]phenyl]-1H-1,2,4-triazole-5-carboxamide] |  |  |  |  |  |  |  |  |  |  |  |  |  | pest or weed control at 125 g/ha (giant foxtail [1]; post-emergence, Postemergence, 0 to 100 scale, 0 no effect, 100 complete control): 75%; pest or weed control at 500 g/ha (giant foxtail [1]; post-emergence, Postemergence, 500 g ai/ha, 0 to 100 scale, 0 no effect, 100 complete control): 90%; pest or weed control at 125 g/ha (giant foxtail [1]; pre-emergence, preemergence, visual injury, 0 to 100 scale (0 no effect, 100 complete control)): 70%; pest or weed control at 500 g/ha (giant foxtail [1]; pre-emergence, preemergence, 500 g ai/ha, visual injury, 0 to 100 scale (0 no effect, 100 complete control)): 95%
7 | CCc1cn(C(C)(C)C)nc1C(=O)Nc1cccc(C(=O)N(CC)CC)c1 [Compound 168, N-[3-[(diethylamino)carbonyl]phenyl]-1-(1,1-dimethylethyl)-4-ethyl-1H-pyrazole-3-carboxamide] |  |  |  |  |  |  |  |  |  |  |  |  |  | pest or weed control at 31 g/ha (giant foxtail [2]; Setaria faberi, post-emergence, 336 h, postemergence, 31 g ai/ha, scale 0 to 100, read-out: Foxtail, Giant plant response rating): 0%; pest or weed control at 125 g/ha (giant foxtail [2]; [16]): 20%; pest or weed control at 125 g/ha (giant foxtail [2]; [17]): 90%
